# Laboratory results taken from PubChem BioAssay (NCI).
# Where “and” joins values, the source holds several entries; their conditions need not be identical. Identical values can stand only once.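 1) Cells in 96-well plates. 2) Compound, 48 h, 5 concentrations. 3) Linear interpolation between surrounding doses. 4) Unreached endpoint = highest concentration. GI50: concentration for 50% inhibition of growth. Definition used: TGI = concentration required for complete inhibition of growth.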
# Columns and labels:
# Assay in all cases: inhibition of tumour cell growth, NCI panel, 48 h
# KM12 colon = system: KM12 colon
# A549 NSCLC = system: A549 NSCLC
# HS 578T breast = system: HS 578T breast
# EKVX NSCLC = system: EKVX NSCLC
# SK-MEL-5 melanoma = system: SK-MEL-5 melanoma
# SF-539 CNS = system: SF-539 CNS
# LOX IMVI melanoma = system: LOX IMVI melanoma
# ACHN renal = system: ACHN renal
Structure (SMILES),GI50 (KM12 colon),TGI (KM12 colon) [µM],GI50 (A549 NSCLC),TGI (A549 NSCLC) [µM],GI50 (HS 578T breast),TGI (HS 578T breast) [µM],GI50 (EKVX NSCLC),TGI (EKVX NSCLC),GI50 (SK-MEL-5 melanoma),TGI (SK-MEL-5 melanoma),GI50 (SF-539 CNS),TGI (SF-539 CNS),GI50 (LOX IMVI melanoma),TGI (LOX IMVI melanoma) [µM],GI50 (ACHN renal),TGI (ACHN renal) [µM]
CC(C)(C)c1cc(/C=N/NC(=O)c2ccccc2NC(=O)c2cccs2)c(O)c(C(C)(C)C)c1,0.831 µM,> 100,0.796 µM,17.9,5.13 µM,42.6,0.365 µM,> 100 µM,0.7 µM,> 100 µM,1.93 µM,22.1 µM,0.542 µM,> 100,0.413 µM,19.2
COc1cccc(-c2cc(=O)c3cc(N4CCOCC4)ccc3[nH]2)c1,0.0243 µM,–,0.225 µM,> 100,–,0.055,0.0608 µM,> 100 µM,0.0319 µM,–,0.0193 µM,0.0505 µM and 0.42 µM,0.0261 µM,–,0.0709 µM,> 100
COC(=O)c1ccc(/C=C(\c2ccc([N+](=O)[O-])o2)S(=O)(=O)c2ccc(NC(C)=O)cc2)o1,–,27.8,–,34.1,–,6.34,–,26.3 µM,–,13.5 µM,–,15.2 µM,–,–,–,11.1
COc1c(/C=C/C=O)cc2c(c1OC)OCO2,–,29.4,–,> 100,–,> 100,–,> 100 µM,–,50.3 µM,–,> 100 µM,–,76,–,> 100
N#CC1=C(N)NC(=S)NC12Nc1ccccc1S2 (configuration not stated),24.9 µM,75.5,37.7 µM,> 100,–,–,3.71 µM,37.9 µM,19.6 µM,54.9 µM,14.7 µM,41.4 µM,17 µM,44.7,21.8 µM,74.3
O=C(O)c1ccc(C(O)(c2ccccc2)c2ccccc2)cc1,–,> 100,–,> 100,–,> 100,–,> 100 µM,–,> 100 µM,–,–,–,> 100,–,> 100
O=C(O)c1cc(=O)cc(C(=O)O)o1,> 100 µM,> 100,> 100 µM,> 100,> 100 µM,> 100,> 100 µM,> 100 µM,> 100 µM,> 100 µM,> 100 µM,> 100 µM,> 100 µM,> 100,> 100 µM,> 100
COc1cc(N2C(=O)[C@H](c3ccccc3)C2c2ccc(SC)cc2)cc(OC)c1OC (some centres not stated),0.0352 µM,> 100,0.0374 µM,> 100,0.0653 µM,> 100,0.0513 µM,> 100 µM,0.0266 µM,0.0821 µM,0.0255 µM,0.0697 µM,0.0352 µM,> 100,0.0454 µM,> 100
CC(C)(C)CC(C)(C)c1ccc(O)c(Cc2ccc(Cl)cc2Cl)c1,1.63 µM,3,1.51 µM,2.83,1.71 µM,3.72,1.57 µM,2.94 µM,1.6 µM,2.95 µM,1.84 µM,3.36 µM,1.53 µM,2.86,1.68 µM,3.05
O=Nc1c(-c2c(O)[nH]c3cc(Br)ccc23)[nH]c2ccccc12,0.471 µM,1.94,1.06 µM,4.89,0.239 µM,7.14,1.3 µM,3.22 µM,0.723 µM,1.99 µM,0.734 µM,2.88 µM,1.1 µM,2.55,0.519 µM,1.91
O=c1cnnc(N/N=C/c2ccccc2O)[nH]1,2.85 µM,> 100,1.55 µM,> 100,28.2 µM,> 100,–,–,1.25 µM,> 39.6 µM,3.2 µM,> 100 µM,1.07 µM,> 48.2,1.19 µM,> 100
C#CC(=O)Nc1cccc2c1cc(C)n2-c1nc2c(c(NCc3ccccc3)n1)CCCC2,0.213 µM,0.546,1.97 µM,4.1,0.353 µM,3.07,1.31 µM,2.96 µM,0.0985 µM,0.259 µM,0.172 µM,0.337 µM,< 0.0132 µM,< 0.0184,0.273 µM,0.786
CCCCCCn1c(SC)nc(COC(=O)NC)c1COC(=O)NC,–,32.6,–,31.5,–,40.3,–,27.1 µM,–,30.3 µM,–,32.4 µM,–,> 100,–,30.5
CC1=C(C)C(=O)O[C@@H]([C@](C)(O)[C@]2(O)CC[C@@]3(O)[C@@H]4C[C@H](O)[C@]5(O)[C@@H](O)C=CC(=O)[C@]5(C)[C@H]4CC[C@]23C)C1,–,> 100,–,> 100,–,> 100,–,> 100 µM,–,> 100 µM,–,> 100 µM,–,> 100,–,> 100
COc1ccc(NC2=C(I)C(=O)c3ncccc3C2=O)cc1,1.68 µM,3.77,1.84 µM,3.91,0.834 µM,5.04,1.73 µM,3.68 µM,0.347 µM,1.42 µM,1.41 µM,2.75 µM,0.309 µM,1.57,1.81 µM,8.53
Oc1c(Cl)cc(Cl)cc1/C=N/Nc1nnc(N/N=C/c2cc(Cl)cc(Cl)c2O)c2ccccc12,0.335 µM,> 100,0.419 µM,> 100,1.03 µM,> 100,0.429 µM,> 100 µM,0.505 µM,2.2 µM,0.258 µM,0.64 µM,0.225 µM,0.586,0.394 µM,> 100
CCc1cnn2c(NCc3ccc[n+]([O-])c3)cc(N3CCCC[C@H]3CCO)nc12,< 0.01 µM and 0.0034 µM,> 10,< 0.0163 µM and 0.00853 µM,> 10,< 0.01 µM and 0.00236 µM,0.00805,< 0.01 µM and 0.00902 µM,0.138 µM and 0.0524 µM,< 0.01 µM and 0.00469 µM,0.0237 µM and 0.207 µM,< 0.01 µM and 0.00228 µM,< 0.0116 µM and 0.00756 µM,< 0.01 µM and 0.00276 µM,> 100,< 0.0155 µM and 0.0132 µM,> 10
